In brackets after ≈: the same amount, converted by molar mass.
How the values were obtained:
[1] = tested on: A549 (human lung adenocarcinoma cells); assay: MTT cytotoxicity to tumor cell strains, A549; format: cell-based; conditions: Homo sapiens, read-out: Cell activity (IC50, μg/ml) A549
Procedure: (§1) The cytotoxicity of samples to tumor cell strains is determined through MTT.

[2] = tested on: Hut 78 (T-cell Leukemia cell); assay: MTT cytotoxicity to tumor cell strains, Hut 78; format: cell-based; conditions: Homo sapiens, HuT78; Hut 78, MTT; read-out: Cell activity (IC50, μg/ml) Hut 78
Procedure: as §1

[3] = tested on: K562: human chronic myeloid leukemia cell strain; assay: MTT cytotoxicity to tumor cell strains, K562; format: cell-based; conditions: Homo sapiens, read-out: Cell activity (IC50, μg/ml) K562
Procedure: as §1

histone deacetylase = assay: in vitro inhibition activity on histone deacetylase (rat liver homogenate, MAL fluorescent substrate); format: biochemical, rats; conditions: n = 4, 37° C., 16 hours
Procedure: A 96-well plate (black) for determining […] is made by Costar Company of U.S. The histone deacetylase is obtained by homogenization of liver of rats. The histone deacetylase reacts with small molecular fluorescent substrate MAL such that the substrate MAL is deacetylated to become ML.
The compound to be detected is dissolved with 200 μL of DMSO. The stock solution of the compound to be detected is diluted with PBS to a concentration of the working solution. The histone deacetylase, the MAL fluorescent substrate and the compound to be detected are mixed in a water bath at 37° C. and reacted 16 hours. The final concentration of the compound to be detected is: MS275 and its similar compound: 10, 100 μmol/.
The reaction solution is extracted with ethyl acetate. The extract is pumped in vacuum and thereto added 110 μL of methanol (40%). Taking 50 μL/well to a 96-well plate and making a fluorescent detection at 325/390 nm.
The negative control wherein histone deacetylase is not added to the reaction is 100% inhibition. The control that only contains histone deacetylase without any inhibitor is the background (0% inhibition). The inhibition rate of the sample to be detected=(the detected fluorescent value−the background)/(the fluorescent value of the negative control−background)×100%
The inhibition rate and the standard deviation in the results are the average inhibition percentage and the standard deviation of each parallel well in each dosage group.

[4] = tested on: PANC-1 human pancreatic cancer cells; assay: CCK-8 proliferation inhibition, PANC-1; format: cell-based; conditions: Homo sapiens; for inhibition at 10 µM: PANC-1, 10 μM; for inhibition at 100 µM: PANC-1, 100 μM
Method in brief: (§2)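 Compounds tested at two concentrations, 10 μM and 100 μM, with inhibition rates from CCK-8 viability read-out.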

[5] = tested on: Jurkat E6-1 human T-cell lymphoma; assay: CCK-8 proliferation inhibition, Jurkat E6-1; format: cell-based; conditions: Homo sapiens; for inhibition at 10 µM: Jurkat E6.1, 10 μM; for inhibition at 100 µM: Jurkat E6.1, 100 μM
Method in brief: as §2

[6] = tested on: Hut78 T-cell Leukemia cell; assay: CCK-8 proliferation inhibition, Hut78; format: cell-based; conditions: Homo sapiens, read-out: Hut-78 (inhibition %); for inhibition at 10 µM: HuT78, 10 μM; for inhibition at 100 µM: HuT78, 100 μM
Method in brief: as §2

[7] = tested on: A549 human lung cancer cells; assay: CCK-8 proliferation inhibition, A549; format: cell-based; conditions: Homo sapiens, A549, CCK-8 method; for inhibition at 10 µM: compound concentration 10 μM; for inhibition at 100 µM: compound concentration 100 μM
Method in brief: as §2

[8] = tested on: MDA-MB-435s human breast cancer cells; assay: CCK-8 proliferation inhibition, MDA-MB-435s; format: cell-based; conditions: Homo sapiens, MDA-MB-435S, CCK-8 method; for inhibition at 10 µM: compound concentration 10 μM; for inhibition at 100 µM: compound concentration 100 μM
Method in brief: as §2

[9] = tested on: PC-3 human prostate cancer; assay: CCK-8 proliferation inhibition, PC-3; format: cell-based; conditions: Homo sapiens, CCK-8 method; for inhibition at 10 µM: compound concentration 10 μM; for inhibition at 100 µM: compound concentration 100 μM
Method in brief: as §2

[10] = tested on: Colo320 human rectal cancer cells; assay: CCK-8 proliferation inhibition, Colo320; format: cell-based; conditions: Homo sapiens, COLO 320, CCK-8 method; for inhibition at 10 µM: compound concentration 10 μM; for inhibition at 100 µM: compound concentration 100 μM
Method in brief: as §2

[11] = tested on: K562 human chronic myeloid leukemia cells; assay: CCK-8 proliferation inhibition, K562; format: cell-based; conditions: Homo sapiens; for inhibition at 10 µM: K562, 10 μM; for inhibition at 100 µM: K562, 100 μM
Method in brief: as §2

[12] = tested on: Hep3B2.1-7 human liver cancer cells; assay: CCK-8 proliferation inhibition, Hep3B2.1-7; format: cell-based; conditions: Homo sapiens, Hep3B, CCK-8 method; for inhibition at 10 µM: compound concentration 10 μM; for inhibition at 100 µM: compound concentration 100 μM
Method in brief: as §2

| inhibition rate % average number (histone deacetylase; dosage 10 μmol/L) | inhibition rate % average number (histone deacetylase; dosage 100 μmol/L) | Compound | IC50 [1] | IC50 [2] | IC50 [3] | inhibition at 10 µM [4] | inhibition at 100 µM [4] | inhibition at 10 µM [5] | inhibition at 100 µM [5] | inhibition at 10 µM [6] | inhibition at 100 µM [6] | inhibition at 10 µM [7] | inhibition at 100 µM [7] | inhibition at 10 µM [8] | inhibition at 100 µM [8] | inhibition at 10 µM [9] | inhibition at 100 µM [9] | inhibition at 10 µM [10] | inhibition at 100 µM [10] | inhibition at 10 µM [11] | also measured |
| --- | --- | --- | --- | --- | --- | --- | --- | --- | --- | --- | --- | --- | --- | --- | --- | --- | --- | --- | --- | --- | --- |
| −0.124% | 0.080% | O=C(NCc1ccc(C(=O)Nc2ccccn2)cc1)OCc1cccnc1 [V-2, N-(2-pyridyl)-4-[(3-pyridylmethoxyacyl)aminomethyl]benzamide] | > 100 µg/mL | 76.2 µg/mL (≈ 210 µM) | > 100 µg/mL |  |  |  |  |  |  |  |  |  |  |  |  |  |  |  |  |
| 0.170% | 0.481% | O=C(NCc1ccc(C(=O)Nc2cccnc2)cc1)OCc1cccnc1 [V-3, N-(3-pyridyl)-4-[(3-pyridylmethoxyacyl)aminomethyl]benzamide] | > 100 µg/mL | 38.8 µg/mL (≈ 107 µM) | > 100 µg/mL |  |  |  |  |  |  |  |  |  |  |  |  |  |  |  |  |

The remaining lines, values behind:

| Compound | inhibition rate % average number (histone deacetylase; dosage 10 μmol/L) | inhibition rate % average number (histone deacetylase; dosage 100 μmol/L) | IC50 [1] | IC50 [2] | IC50 [3] | inhibition at 10 µM [4] | inhibition at 100 µM [4] | inhibition at 10 µM [5] | inhibition at 100 µM [5] | inhibition at 10 µM [6] | inhibition at 100 µM [6] | inhibition at 10 µM [7] | inhibition at 100 µM [7] | inhibition at 10 µM [8] | inhibition at 100 µM [8] | inhibition at 10 µM [9] | inhibition at 100 µM [9] | inhibition at 10 µM [10] | inhibition at 100 µM [10] | inhibition at 10 µM [11] | also measured |
| --- | --- | --- | --- | --- | --- | --- | --- | --- | --- | --- | --- | --- | --- | --- | --- | --- | --- | --- | --- | --- | --- |
| Nc1ccccc1CNC(=O)c1ccc(CNC(=O)OCc2cccnc2)cc1 [V-1, N-(2-aminobenzyl)-4-[(3-pyridylmethoxyacyl)aminomethyl]benzamide] | 0.479% | 0.293% | > 100 µg/mL | 12.5 µg/mL (≈ 32 µM) | > 100 µg/mL |  |  |  |  |  |  |  |  |  |  |  |  |  |  |  |  |
| COc1cc(/C=C/C(=O)NCc2ccc(C(=O)Nc3cccnc3N)cc2)cc(OC)c1OC [V-34, N-(2-amino-3-pyridyl)-4-[(3,4,5-trimethoxycinnamoyl)aminomethyl]benzamide] |  |  | > 100 µg/mL | 68.5 µg/mL (≈ 148 µM) | > 100 µg/mL | 9.2% | 4% | 4.7% | 52.7% | 9.9% | 53.1% | -7.4% | 6.2% | 21.5% | 42.9% | 7% | 40.2% | 7.3% | 5.9% | 12.8% | inhibition at 100 µM [11]: 61.2%; inhibition at 10 µM [12]: 1%; inhibition at 100 µM [12]: 28.1% |
| Nc1ncccc1NC(=O)c1ccc(CNC(=O)/C=C/c2ccc([N+](=O)[O-])cc2)cc1 [V-36, N-(2-amino-3-pyridyl)-4-[(4-nitrocinnamoyl)aminomethyl]benzamide] |  |  | > 100 µg/mL | 17.1 µg/mL (≈ 40.9 µM) | > 100 µg/mL | 20.8% | 39.5% | 12.5% | 83.3% | 8.1% | 60% | 2.4% | 12% | 30.8% | 61.2% | -9.4% | 22.1% | 7.9% | 14.1% | 34.1% | inhibition at 100 µM [11]: 64.8%; inhibition at 10 µM [12]: 11.3%; inhibition at 100 µM [12]: 40.6% |

Reference: US8889876B2, “Histone deacetylase inhibitors and uses thereof” (Jiangsu Hengyi Pharmaceutical Co., Ltd., priority 2008, dated 2014)
